Assay results published in paper PMC12509006, “Synthesis and Evaluation of Pyridine-Based Antibacterial Agents that Inhibit ATP Synthase in Acinetobacter baumannii” (ACS Omega, 2025).
In brackets after ≈: the same amount, converted by molar mass. Like-named read-outs stand apart in the source and are kept apart here.

Legend:
[1] = target: T1, A. baumannii ATP synthase (Acinetobacter baumannii, UniProt A3M139); set-up: method as in PMID 40014581; conditions: quinoline lead of the earlier series, comparison; read-out: IC50, AB ATP synthase (converted); cited from earlier work
T1 construct: endogenous electron transport chains of inverted inner membrane vesicles were energized with NADH; endogenous in cells; host or cells: inverted inner membrane vesicles prepared from A. baumannii ATCC 17978 cells
T1 sequence (A3M139 whole entry): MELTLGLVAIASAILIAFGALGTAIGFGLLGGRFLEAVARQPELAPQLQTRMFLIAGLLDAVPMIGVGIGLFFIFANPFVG

[2] = test system: MDR AB BAA 1605; test: Broth microdilution antimicrobial susceptibility assay, MDR isolate; conditions: Acinetobacter baumannii, BAA1605, read-out: MIC, MDR AB BAA 1605
[3] = test system: AB BAA 1605; test: Checkerboard assay with colistin sulfate, BAA 1605
Procedure: (§1) Synthesized compounds in DMSO (2–128 μg/mL, row G-A) were combined with colistin sulfate in ultra purified water (0.125–32 μg/mL, column 2–10) in a 96-well microtiter plate checkerboard assay against ATCC 17978 and BAA-1605 (MDR). Briefly, liquid cultures of bacteria were grown for 14–16 h by inoculating a single bacterial culture into 10 mL TSB. To each well 88 μL of TSB, 10 μL of bacteria culture, and 1 from each master plate was added (see layout below). Plates were covered and incubated at 37 °C for 12–18 h.

[4] = test system: HEK 293 cells; test: XTT cell viability cytotoxicity assay; conditions: n = 3, 24 h treatment
[5] = test system: MDR AB BAA 1605; set-up: method as in PMID 40014581; conditions: quinoline lead of the earlier series, Figure 1; cited from earlier work
[6] = test system: AB ATCC 17978; test: Broth microdilution antimicrobial susceptibility assay, susceptible isolate; conditions: Acinetobacter baumannii, ATCC17978, read-out: MIC, AB ATCC 17978
[7] = test system: AB ATCC 17978; test: Checkerboard assay with colistin sulfate, ATCC 17978
Procedure: as §1

[8] = target: T1, A. baumannii ATP synthase; test: AB ATP synthase inhibition: NADH-driven ATP synthesis in inverted inner membrane vesicles, luciferin/luciferase readout; assay type: biochemical; conditions: for Hill coefficient (Hill slope): fit of ATP synthesis dose response curve
Procedure: Once synthesized, the pyridine compounds were tested for their ability to inhibit ATP synthase activity using our previously reported luciferin/luciferase assay. Briefly, endogenous electron transport chains of inverted inner membrane vesicles were energized with NADH to generate a proton gradient and to drive ATP synthesis. ATP was measured via luminescence from the luciferase-catalyzed oxidation of D-luciferin. Luminescence activities across increasing inhibitor concentrations were corrected for gradient independent background sources of ATP by comparison with a control containing the protonophore CCCP (carbonyl cyanide 3-chlorophenylhydrazone). The data were then fit to a four-parameter logistic dose–response curve, from which IC50 values and Hill coefficients were determined using a nonlinear least-squares regression.
A. baumannii (ATCC 17978) cells were grown in LB medium at 37 °C with shaking at 150 rpm and harvested by centrifugation in the late exponential phase of growth. Cells were resuspended in TMG buffer (50 mM Tris-HCl, pH 7.5, 5 mM MgCl2, 10% v/v glycerol) with 1 mM phenylmethanesulfonyl fluoride, 1 mM dithiothreitol, and a small amount of DNase and lysed by two passes through an Avestin B15 homogenizer at 19,000 psi. Lysate was cleared by centrifugation at 9000g and inverted membrane vesicles were collected from the supernatant by centrifugation at 169,000g. To reduce background ATP synthesis activity in AB vesicles, it was important to wash the membranes by resuspending in TMG buffer and centrifuging again at 169,000g. Washed pellets were resuspended in TMG buffer, and aliquots were stored at −80 °C. Once thawed, aliquots were not refrozen. Protein concentration in membrane vesicles was determined using a modified Lowry assay.
In vitro ATP synthesis activity of inverted inner membrane vesicles was measured as previously described. A reaction solution was prepared containing 5 mM tricine-KOH, pH 8.0, 50 mM KCl, 2.5 mM MgCl2, 0.1 mM adenosine diphosphate, 3.75 mM potassium phosphate, and 2.5 mM NADH and distributed into a 96-well plate. NADH-driven ATP synthesis was initiated by addition of inverted vesicles to 50 μg/mL and allowed to proceed for 10 min. The reaction was stopped by transferring an aliquot into 1% trichloroacetic acid. The stopped reaction was diluted 100-fold with deionized water and a sample was transferred to luciferase solution containing 25 mM tricine-NaOH, pH 7.8, 5 mM MgSO4, 0.1 mM EDTA, 0.1 mM NaN3, 150 μg/mL luciferin, and 7.5 μg/mL luciferase. Luminescence was measured in an opaque white 96-well plate using a BioTek H1 multimode plate reader. Each replicate set included a positive control containing DMSO with no compound and a negative control containing carbonyl cyanide 3-chlorophenylhydrazone (CCCP). Luminescence values were corrected for background by subtracting the CCCP control and normalized to the luminescence of the DMSO control. Normalized activity was fit using a variable-slope dose response curve. Nonlinear regression, including prediction of 95% confidence bands, and pairwise comparisons of fits using the F-test method were completed using GraphPad Prism10. Relativeactivity=1/1+(c/IC50)^Hillslope […]
Figure S1. ATP synthesis inhibition by all pyridine compounds in order of WSA compound number. ATP synthesis activities in inverted inner membrane vesicles prepared from AB cells were measured in the presence of 0.0625-64 µg/mL, corrected for background ATP, and normalized to activity with DMSO alone (see methods). For each plot, dots are normalized activities at each concentration (n≥3) on a log 2 scale, solid lines are fitted dose response curves, and dashed lines show the 95% confidence range of the fit. IC50

[9] = test system: AB electron transport chain (ETC); test: AB electron transport chain inhibition: NADH-driven H+ pumping, ACMA fluorescence quenching; assay type: biochemical, Acinetobacter baumannii; conditions: at 2 μg/mL compound
Procedure: To ensure that the pyridine analogs were selectively inhibiting AB ATP synthase, each analog was also evaluated for inhibition of the AB electron transport chain (ETC) at 2 μg/mL using a standard protocol. − Briefly, respiratory dehydrogenase complexes were energized with NADH to initiate redox-driven H^+ pumping into the vesicle lumen, which was in turn detected by the quenching of 9-amino-6-chloro-2-methoxyacradine fluorescence. Most compounds were tested at concentrations of 2 μg/mL to establish whether ETC inhibition occurred in the same range as ATP synthase inhibition (Figure S2).
NADH-driven proton pumping activity in inverted membrane vesicles was measured as previously described. Briefly, vesicles were diluted to 0.5 mg/mL in HMK buffer (50 mM HEPES, 2 mM MgCl2, 300 mM KCl, pH 7.5) with 0.3 μg/mL 9-amino-6-chloro-2-methoxyacridine (ACMA) and distributed into wells of a black 96-well plate containing various concentrations of inhibitors dissolved in DMSO. ACMA fluorescence (λex = 415 nm, λem = 485 nm) was monitored using a BioTek H1 multimode plate reader. Proton pumping was initiated by addition of NADH to 0.8 mM and terminated by addition of nigericin to 0.5 μg/mL. Activity was defined as the percent quenching of fluorescence, where fluorescence values are normalized to the maximum fluorescence following the addition of nigericin.
Figure S2. Inhibition of the AB electron transport chain (ETC) by compounds at 2 µg/mL.
ETC H+-pumping activity in inverted inner membrane vesicles prepared from AB cells was determined by the quenching of ACMA dye upon initiation with NADH. Addition of nigericin returned fluorescence to baseline, and relative fluorescence quenching is defined as the minimum fluorescence over the maximum fluorescence after addition of nigericin. Relative ETC inhibition (bars) is the fraction of fluorescence quenching decreased by the presence of 2 µg/mL compound.
(1 picture or pasted object on this page, not shown here)

[10] = synergistic FICI ≤ 0.5, additivity FICI 0.5 < x < 1
[11] = inverted inner membrane vesicles, 0.0625-64 µg/mL, n≥3, Table S1, read-out: AB ATP Synthase Inhibition IC50 (converted)

SMILES	IC50 [1]	MIC [2]	MIC ([3]; Acinetobacter baumannii, BAA1605, read-out: MIC alone, AB BAA 1605)	fold change of MIC, AB BAA 1605 ([3]; alone vs +colistin)	fractional inhibitory concentration index (FICI) / interaction with colistin, MDR AB BAA 1605 [3, 10]	MIC +colistin, AB BAA 1605 ([3]; with 0.25 μg/mL colistin)	MIC, HEK 293 (cytotoxicity) [4]	MDR AB MIC [5]	MIC [6]	MIC ([7]; Acinetobacter baumannii, ATCC17978, read-out: MIC alone, AB ATCC 17978)	fold change of MIC, AB ATCC 17978 ([7]; alone vs +colistin)	fractional inhibitory concentration index (FICI) / interaction with colistin, AB ATCC 17978 [7, 10]	MIC +colistin, AB ATCC 17978 ([7]; with 0.5 μg/mL colistin)	Hill coefficient (Hill slope) [8]	IC50 [8, 11]	ETC inhibition [9]	IC50 ([8]; Figure 2, read-out: IC50, AB ATP synthase inhibition (converted))
CCN1CCC(CCNCc2cc3cc(-c4ccccc4)ccc3nc2SCc2ccccc2)CC1 [WSA 261, reference compound]	1550 nM	16 µg/mL (≈ 32.3 µM)	16 µg/mL	2	additivity	8 (0.25 μg/mL Col)	8 µg/mL (≈ 16.1 µM)	16 µg/mL	8 µg/mL (≈ 16.1 µM)	8 µg/mL	2	additivity	4 (0.5 μg/mL Col)	–	–	–	–
CN1CCN(CCNCc2cc(-c3ccc(F)cc3)cnc2SCc2ccccc2)CC1 [WSA 273]	–	128 µg/mL (≈ 284 µM)	–	–	–	–	4 µg/mL (≈ 8.88 µM)	–	32 µg/mL (≈ 71 µM)	–	–	–	–	-0.8	1890 nM	40%	–
CN1CCN(CCNCc2cc(-c3ccc(F)cc3F)cnc2SCc2ccccc2)CC1 [WSA 274]	–	128 µg/mL (≈ 273 µM)	–	–	–	–	4 µg/mL (≈ 8.54 µM)	–	32 µg/mL (≈ 68.3 µM)	–	–	–	–	-0.8	1710 nM	40%	–
COc1ccc(-c2cnc(SCc3ccccc3)c(CNCCN3CCN(C)CC3)c2)cc1F [WSA 275]	–	128 µg/mL (≈ 266 µM)	–	–	–	–	4 µg/mL (≈ 8.32 µM)	–	32 µg/mL (≈ 66.6 µM)	–	–	–	–	-0.7	499 nM	40%	416 nM
